Measurements reported in patent publication US12350288B2, “Inducing caspase activity” (Dow Global Technologies LLC, priority 2019, dated 2025).

Test system: HT-29 cells (human colon; colorectal adenocarcinoma)
Description: HT-29 (ATCC® HTB-38™) cells (which contained approximately 1×10^6 cells per mL) were initiated and seeded into a T-25 flask containing McCoy's 5A and fetal bovine serum (10% (v/v)). […] The cells were grown in a humidified incubator (SANYO INCT-16-CMT; MCO-19AIC (UV)) maintained at 37° C. and 5% CO2. Then, the cells were rinsed with 1× Dulbecco's Phosphate-Buffered Saline and sub-cultured in T-75 flasks 1 to 3 times per week using 1× Trypsin-EDTA, applied for ≤5 minutes; enzymatic action of the trypsin-EDTA was stopped by adding complete growth medium to the detached cells. Then, upon reaching 80 to 90% confluency the cells were split into the following split ratio ranges: 1:5 to 1:16. Subculture and growth expansion activities were recorded, such as passage number, % confluency, % viability (only on experimental set-up day), and cell morphology throughout all phases. The cells were maintained in log-phase growth.
Cell culture plating was performed as follows. A cell suspension from a single 80 to 90% confluent T-75 flask was harvested with trypsin-EDTA and complete growth medium. To obtain cell concentration and viability, cell counts were obtained using a COUNTESS automated cell counter (INVITROGEN C10227; CNTR-7-CMT) in which 2 chambers of each slide were provided with 10 μL each of 1:1, 0.4% trypan-blue dye (INVITROGEN T10282) and cell suspension. […]

Which viability does the source give for “Poly(ethylene glycol) methyl ether tosylate” here?
The viability was ≥ 70%.
